Source: PubChem BioAssay AID1648 (Sanford-Burnham Center for Chemical Genomics, 2009)
Activity calls are given as the source filed them. The rule behind the calls is not given here.

Biological target: Serine/threonine-protein kinase mTOR (Homo sapiens) (UniProt P42345)
Assay: binders of mTOR FRB domain, biophysical, NMR (AID 1648)
Conditions: NMR binding to FRB domain, chemical shift

Sequence of Serine/threonine-protein kinase mTOR (Homo sapiens) (P42345 2015-2114): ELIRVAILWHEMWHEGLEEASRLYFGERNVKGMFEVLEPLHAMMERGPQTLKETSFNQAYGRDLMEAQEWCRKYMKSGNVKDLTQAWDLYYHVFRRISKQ

Structure (SMILES) | Kd
Cc1n[nH]c(=S)n(/N=C/c2ccccc2)c1=O | > 4 mM (inactive)
CC(=O)Nc1sccc1C(N)=O | > 4 mM (inactive)
CCNCC(O)c1ccc([N+](=O)[O-])cc1 (stereo not given) | > 4 mM (inactive)
CS(=O)(=O)c1ccc2nc(N)sc2c1 | > 4 mM (inactive)
COc1ccc2[nH]c(O)c(NC(C)=O)c2c1 | > 4 mM (inactive)
O=C(NCc1ccccc1F)c1cccs1 | > 4 mM (inactive)
Cc1ccccc1CSc1nnc(C)n1N | > 4 mM (inactive)
OCc1ccccc1O[C@@H]1O[C@H](CO)[C@@H](O)[C@H](O)[C@H]1O | > 4 mM (inactive)
CS(=O)(=O)N1CCC(C(=O)NC2CCCC2)CC1 | > 4 mM (inactive)
O=C1NC(=O)C(=Cc2ccccc2)C(=O)N1 | > 4 mM (inactive)
CC12CCCC(O)(C1)C1CC(C)(C)C1CC2 (stereo not given) | > 4 mM (inactive)
CCCCN1C(=O)N(C)C2NC(=O)NC21 (stereo not given) | > 4 mM (inactive)
O=C(NC1CSCC1O)c1ccccc1 (stereo not given) | > 4 mM (inactive)
O=C(c1ccc(Cl)c(F)c1F)N1CCCC1 | > 4 mM (inactive)
O=c1[nH]cc(N2CCCCC2)c(=O)[nH]1 | > 4 mM (inactive)
COC(=O)C1CSCC1=O (stereo not given) | > 4 mM (inactive)
CC1(C)O[C@H]2CC(=O)OC[C@]23[C@H]2CC[C@@]4(C)[C@H](c5ccoc5)OC(=O)[C@H]5O[C@]54[C@]2(C)C(=O)C[C@@H]13 | > 4 mM (inactive)
Cc1sc2nc3n(c(=O)c2c1C)CCCS3 | > 4 mM (inactive)
COC(=O)Nc1nc2c(s1)CCCC2 | > 4 mM (inactive)
CN1CCC(NC(=O)c2cccnc2)CC1 | > 4 mM (inactive)
CC(CO)NC(=O)C1C=C2c3cccc4[nH]cc(c34)C[C@H]2N(C)C1 (stereo not given in full) | > 4 mM (inactive)
Cn1nnc2cc(C(=O)NCc3ccco3)ccc21 | > 4 mM (inactive)

Structure (SMILES) | Kd
Nc1cccc(NC(=O)c2cccs2)c1 | > 4 mM (inactive)
Cc1nc(-c2cccc(C(=O)O)c2)cs1 | > 4 mM (inactive)
CN(C)S(=O)(=O)c1cccc(N)c1 | > 4 mM (inactive)
O=S1(=O)CCC(N2CCCCC2)C1 (stereo not given) | > 4 mM (inactive)
CC(C)(C)c1cc(NC(=O)c2cccnc2)no1 | > 4 mM (inactive)
CCCc1nc2ccccc2c2nc(N)nn12 | > 4 mM (inactive)
NCc1cccc2nsnc12 | > 4 mM (inactive)
Cc1ccc(NC(=O)c2ccccc2)s1 | > 4 mM (inactive)
COc1cccc(Oc2ccc(N)cn2)c1 | > 4 mM (inactive)
NS(=O)(=O)c1ccccc1Cl | > 4 mM (inactive)
CC(=O)Oc1cccc2ccc(=O)[nH]c12 | > 4 mM (inactive)
COc1cc(C(=O)NCC2CCCO2)cc(OC)c1OC (stereo not given) | > 4 mM (inactive)
N#Cc1cnn(Cc2ccc(Cl)cc2)c1N | > 4 mM (inactive)
CSc1nc(-c2ccccc2)ccc1C(N)=O | > 4 mM (inactive)
O=C(O)c1ccc2ccccc2n1 | > 4 mM (inactive)
Nc1nc(O)c(C2=c3cc(Cl)ccc3=NC2=O)s1 | > 4 mM (inactive)
Cc1nc(-c2cccc(N)c2)cs1 | > 4 mM (inactive)
O=C(Nc1ccc(-c2nnco2)cc1)c1ccccc1 | > 4 mM (inactive)
O=c1ccc2c([nH]1)CCCC2 | > 4 mM (inactive)
O=C1NCC(=O)N2CCc3ccccc3C12 (stereo not given) | > 4 mM (inactive)
COc1ccccc1/C=C\C(=O)O | > 4 mM (inactive)
CC(=O)Nc1ccc(C(=O)N2CCOCC2)cc1Cl | > 4 mM (inactive)

Structure (SMILES) | Kd
CN1CCN(CC(=O)NC2CCCCC2)CC1 | > 4 mM (inactive)
CC1(C)C(=O)C=C[C@@]2(C)C1CC(=O)[C@]1(C)C2CC[C@@]2(C)[C@H](c3ccoc3)OC(=O)[C@H]3O[C@]321 (stereo not given in full) | > 4 mM (inactive)
Cc1cc(SCCF)n2ncnc2n1 | > 4 mM (inactive)
C=C1C[C@]23C[C@@]1(O)CC[C@H]2[C@@]12C=C[C@H](O)C(C)(C(=O)O1)[C@H]2[C@@H]3C(=O)O | > 4 mM (inactive)
Cc1cn(C(=O)CN2C(=O)c3ccccc3C2=O)c(C)n1 | > 4 mM (inactive)
O=C(O)Cn1c(C(F)(F)F)nc2ccccc21 | > 4 mM (inactive)
c1ccc(CCN2CCN(CCc3ccccn3)CC2)nc1 | > 4 mM (inactive)
Cc1sc2nc[nH]c(=S)c2c1C | > 4 mM (inactive)
Cc1cc(C(=O)Nc2ccc3c(c2)OCO3)cs1 | > 4 mM (inactive)
CC(=O)OC/C=C(\C)CC/C=C(\C)CC/C=C(\C)CC/C=C(\C)CC/C=C(\C)CC/C=C(\C)CC/C=C(\C)CC/C=C(\C)CCC=C(C)C | > 4 mM (inactive)
Cn1c(=O)cc(O)c2ccccc21 | > 4 mM (inactive)
COc1ccc(-c2nc(N)n(C(C)=O)n2)cc1 | > 4 mM (inactive)
NC(CC(=O)O)c1ccccc1 (stereo not given) | > 4 mM (inactive)
Cn1c(=O)c2cn3ncccc3c2n(C)c1=O | > 4 mM (inactive)
CC1=NN2C(=N)/C(=C\c3cccs3)C(=O)N=C2S1 | > 4 mM (inactive)
NC(=O)c1ccc(N2C(=O)C=CC2=O)cc1Cl | > 4 mM (inactive)
CC(=O)Nc1ccc(N2C(=O)C=CC2=O)cc1C | > 4 mM (inactive)
CC(=O)c1c(C)n(O)c2ccc3nonc3c12 | > 4 mM (inactive)
O=C(O)c1csc(-c2ccccc2)n1 | > 4 mM (inactive)
OCc1ccc2occc2c1 | > 4 mM (inactive)
Nn1cnn2c(SCc3ccccc3)nnc12 | > 4 mM (inactive)
CC12OC(=O)CC3C(C)(C)[C@H](O)C=C[C@]3(C)C1CC[C@]1(C)C2=CC(=O)O[C@H]1c1ccoc1 (stereo not given in full) | > 4 mM (inactive)

Structure (SMILES) | Kd
Cc1nn(CC(=O)N2CCCCC2)c(=O)c2ccccc12 | > 4 mM (inactive)
CC(=O)O[C@@H]1c2c(ccc3ccc(=O)oc23)OC(C)(C)[C@@H]1OC(=O)CC(C)C | > 4 mM (inactive)
NC(=O)CN1CC(c2ccccc2)CC1=O (stereo not given) | > 4 mM (inactive)
O=C1CC(NCc2ccco2)C(=O)NN1 (stereo not given) | > 4 mM (inactive)
CC(=O)Cc1nsc(NC(=O)c2ccc(C)cc2)n1 | > 4 mM (inactive)
O=C(Nc1ccc(N2CCOCC2)cc1)c1cnsn1 | > 4 mM (inactive)
O=C1c2ccccc2C(=O)c2c1ccc(O)c2O | > 4 mM (inactive)
Cc1cc(C)c(NC(=O)CN2CCC(O)CC2)c(C)c1 | > 4 mM (inactive)
C=C1CSc2nc(=O)c3c(C)c(C)sc3n21 | > 4 mM (inactive)
CC(C)(C)C(=O)N1CCCC1C(=O)O (stereo not given) | > 4 mM (inactive)
O=C1COc2ccccc2C(=O)N1 | > 4 mM (inactive)
C[C@@H]1C(=O)O[C@H]2[C@H]1CC[C@@]1(C)C=CC(=O)[C@@]3(C)O[C@@]213 | > 4 mM (inactive)
NC(Cc1c[nH]c2ccccc12)C(=O)O (stereo not given) | > 4 mM (inactive)
O=C(Cn1cncn1)c1ccc(F)c(F)c1 | > 4 mM (inactive)
Cc1nc(SCC#N)c2c3c(sc2n1)CCC3 | > 4 mM (inactive)
COCCn1cnc2cc(C)c(C)cc21 | > 4 mM (inactive)
CC(=O)c1ccc(Cc2cnc(N)s2)cc1 | > 4 mM (inactive)
Cc1c(C)c2c(c(C)c1O)CCC(C)(CCCC(C)CCCC(C)CCCC(C)C)O2 (stereo not given) | > 4 mM (inactive)
CC(=O)O[C@@H]1CC2C(C)(C)C(=O)C=C[C@]2(C)C2CC[C@]3(C)C(=CC(=O)O[C@H]3c3ccoc3)[C@@]21C (stereo not given in full) | > 4 mM (inactive)
